# Reference: paper PMC7912279, “Preclinical Evaluation of ^99mTc-Labeled GRPR Antagonists maSSS/SES-PEG2-RM26 for Imaging of Prostate Cancer” (Pharmaceutics, 2021)
# Columns and labels:
# [1] = tested on: PC-3 xenografts; experiment: Biodistribution in tumor bearing mice; format: in vivo; settings: BALB/c nu/nu mice bearing PC-3 xenografts, 3 h pi
# Method: Animals: All in vivo experiments were carried out on BALB/c nu/nu or NMRI mice provided by Scanbur A/S (Sollentuna, Sweden). All animal studies were approved by the Ethics Committee for Animal Research in Uppsala (Sweden), following the national legislation on the protection of laboratory animals (project identification code of approval 5/16, 26 February 2016). Prostate cancer xenografts expressing GRPR were established in BALB/c nu/nu mice by subcutaneous injection of PC-3 cell suspension in PBS (7 × 10^6 cells in 100 µL) four weeks before the experiment. Four to seven mice per data point were used in in vivo experiments, two mice per data point were used in metabolic analysis and SPECT/CT imaging experiments.
# Biodistribution in tumor bearing mice: The comparison of biodistribution between the two radiolabeled peptides was evaluated in BALB/c nu/nu mice bearing PC-3 xenografts. Each mouse was injected with 40 pmol (30 kBq, mass of injected peptide was adjusted with unlabeled peptide) of either [^99mTc]Tc-maSSS-PEG2-RM26 or [^99mTc]Tc-maSES-PEG2-RM26. The mice were euthanized 3 h pi. Sample collection and activity measurements were done as described above. The biodistribution of [^99mTc]Tc-maSSS-PEG2-RM26 was further studied at 6 h pi following the same protocol. Additionally for [^99mTc]Tc-maSSS-PEG2-RM26, one group of xenograft bearing mice was injected with 40 pmol (30 kBq, mass of injected peptide was adjusted with unlabeled peptide) of labeled peptide with 5 nmol of unlabeled peptide and euthanized 3 h pi.
# [2] = Octanol-water distribution coefficient (logD); format: physicochemical; settings: determined as previously described [35]
# Method: To test the stability, the radiolabeled peptides were incubated with 300× molar excess of cysteine or with PBS at room temperature for 1 h. The octanol-water distribution coefficient (logD) was determined as previously described.
# [3] = 40 pmol (30 kBq), gamma counter, 4-7 mice
compound,measurement,setting,value
"CC(C)C[C@H](NC(=O)C[C@H](O)[C@H](CC(C)C)NC(=O)[C@H](Cc1c[nH]cn1)NC(=O)CNC(=O)[C@@H](NC(=O)[C@H](C)NC(=O)[C@H](Cc1c[nH]c2ccccc12)NC(=O)[C@H](CCC(N)=O)NC(=O)[C@@H](Cc1ccccc1)NC(=O)COCCOCCNC(=O)[C@H](CO)NC(=O)[C@H](CCC(=O)O)NC(=O)[C@H](CO)NC(=O)CS)C(C)C)C(N)=O [[^99mTc]Tc-maSES-PEG2-RM26, metal not drawn]","uptake, Blood",[1]; [3],0.15 ± 0.07 % IA/g
same,"uptake, Bone",[1]; [3],0.04 ± 0.02 % IA/g
same,"uptake, GI (gastrointestinal tract with content)",[1]; [3],46 ± 4 % IA
same,"uptake, Intestine",[1]; [3],1.1 ± 0.6 % IA/g
same,"uptake, Kidneys",[1]; [3],3 ± 2 % IA/g
same,"uptake, Liver",[1]; [3],1.1 ± 0.3 % IA/g
same,"uptake, Lung",[1]; [3],0.14 ± 0.07 % IA/g
same,"uptake, Muscle",[1]; [3],0.04 ± 0.03 % IA/g
same,"uptake, Pancreas",[1]; [3],2 ± 1 % IA/g
same,"uptake, Spleen",[1]; [3],0.11 ± 0.02 % IA/g
same,"uptake, Stomach",[1]; [3],0.9 ± 0.4 % IA/g
same,"uptake, Tumor",[1]; [3],2.9 ± 0.7 % IA/g
same,"Tumor-to-non-tumor ratio, Blood",[1]; 40 pmol,26 ± 19
same,"Tumor-to-non-tumor ratio, Bone",[1]; 40 pmol,84 ± 54
same,"Tumor-to-non-tumor ratio, Intestine",[1]; 40 pmol,3 ± 2
same,"Tumor-to-non-tumor ratio, Kidneys",[1]; 40 pmol,2 ± 2
same,"Tumor-to-non-tumor ratio, Liver",[1]; 40 pmol,3.0 ± 0.8
same,"Tumor-to-non-tumor ratio, Lung",[1]; 40 pmol,26 ± 16
same,"Tumor-to-non-tumor ratio, Muscle",[1]; 40 pmol,90 ± 52
same,"Tumor-to-non-tumor ratio, Pancreas",[1]; 40 pmol,1.5 ± 0.8
same,"Tumor-to-non-tumor ratio, Spleen",[1]; 40 pmol,24 ± 10
same,"Tumor-to-non-tumor ratio, Stomach",[1]; 40 pmol,4 ± 2
same,logD,[2],-1.0
